# Experimental data taken from US20110034507A1, “FARNESOID X RECEPTOR AGONISTS” (SMITHKLINE BEECHAM CORPORATION, priority 2007, published 2011).
# Molecular target: T1, Human FXRα Ligand Binding Domain (Homo sapiens, UniProt Q96RI1)
# T1 construct: polyhistidine (pRSET-A vector leader) (N); made in house; host or cells: E. coli BL21 (DE3), pRSET-A vector
# T1 sequence (Q96RI1 237-472 isoform Q96RI1-2): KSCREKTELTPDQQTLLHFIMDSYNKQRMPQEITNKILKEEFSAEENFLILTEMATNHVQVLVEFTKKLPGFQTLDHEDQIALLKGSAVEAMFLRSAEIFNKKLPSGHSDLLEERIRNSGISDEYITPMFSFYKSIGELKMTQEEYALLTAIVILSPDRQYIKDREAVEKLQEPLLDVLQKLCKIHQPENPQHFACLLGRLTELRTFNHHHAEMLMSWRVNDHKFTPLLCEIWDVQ
# Assay: FXR Cofactor Binding Assay (ligand mediated SRC-1 cofactor peptide interaction, time resolved fluorescence)
# Format: biochemical
# Conditions: FXRα LBD / SRC-1 (LCD2, 676-700) peptide, TRF; read-out: Activity (pEC50) (converted)
# Source text: Determination of a ligand mediated cofactor peptide interaction to quantify ligand binding to the nuclear receptor Farnesoid X Receptor (FXR). The method measures the ability of putative ligands to modulate the interaction between the purified bacterial expressed FXRα ligand binding domain (LBD) and a synthetic biotinylated peptide based on residues 676-700 of steroid receptor coactivator-1 (SRC-1) (LXXLL-containing domain-2 where L is the amino acid leucine and X indicates any other amino acid (LCD2), 676-700). The sequence of the SRC-1 peptide used is as published in Iannone, M. A., et al., 2001 Cytometry 44:326-337 where the N-terminus was biotinylated (B) and the C-terminus was amidated. Detection of the associated complex was measured by time resolved fluorescence (TRF). The purified LBD of FXR was labeled with biotin, then mixed with stoichiometric amounts of allophycocyanin (APC) labeled streptavidin (Molecular Probes). The biotinylated peptide was then mixed with a ½ stoichiometric amount of europium labeled streptavidin (Wallac Inc). Each was then blocked with a 5 fold excess of biotin and allowed to equilibrate for 15 min. Equimolar amounts of receptor and peptide were mixed together and were allowed to equilibrate for at least 30 min prior to the addition to either a variable or constant concentrations of the sample for which the affinity is to be determined. After equilibration, the time-resolved fluorescent signal was quantitated using a fluorescent plate reader. The affinity of the test compound was estimated from a plot of fluorescence versus concentration of test compound added.
# Ligands that promote the complex formation induce a concentration-dependent increase in time-resolved fluorescent signal.
# Human FXRα Ligand Binding Domain (FXRα LBD) was expressed in E. coli strain BL21 (DE3) as an amino-terminal polyhistidine tagged fusion protein. Expression was under the control of an isopropyl-β-D-thiogalactopyranoside (IPTG) inducible T7 promoter. DNA encoding this recombinant protein is subcloned into the pRSET-A expression vector (Invitrogen). The coding sequence of Human FXRα LBD was derived from Genbank accession number U 68233 (amino acids 237 to 472).
# Ten-liter fermentation batches were grown in Rich PO4 media with 0.1 mg/mL Ampicillin at 25° C. for 12 hours, cooled to 9° C. and held at that temperature for 36 hours to a density of OD600=14. At this cell density, 0.25 mM IPTG is added and induction proceeded for 24 hours at 9° C., to a final OD600=16. Cells are harvested by centrifugation (20 minutes, 3500×gravity, 4° C.), and concentrated cell slurries were stored in phosphate buffered saline (PBS) at […].
# Routinely, 30-40 g cell paste (equivalent to 2-3 liters of the fermentation batch) was resuspended in 200-250 mL Tris buffered saline (TBS), pH 7.2 (25 mM Tris-hydroxymethylamino methane (Tris), 150 mM sodium chloride). Cells were lysed by passing 3 times through a French Press and cell debris was removed by centrifugation (30 minutes, 20,000×gravity, 4° C.). The cleared supernatant was filtered through course pre-filters, and TBS, pH 7.2, 500 mM imidazole was added to obtain a final imidazole concentration of 50 mM. This lysate was loaded onto a column (6×8 cm) packed with Sepharose [Ni^++ charged] Chelation resin (Pharmacia) and pre-equilibrated with TBS pH 7.2/50 mM imidazole. After washing to baseline absorbance with equilibration buffer, the column was washed with one column volume of TBS pH 7.2 containing 90 mM imidazole. FXRα LBD was eluted directly with 365 mM imidazole. Column fractions were pooled and dialyzed against TBS, pH 7.2, containing 0.5 mM EDTA and 5 mM DTT. The dialyzed protein sample was concentrated using Centri-prep 10 K (Amicon) and subjected to size exclusion, using a column (3×90 cm) packed with Sepharose S-75 resin (Pharmacia) pre-equilibrated with TBS, pH 7.2, containing 0.5 mM ethylene diamine tetraacetic acid (EDTA) and 5 mM dithiothreitol (DTT).
row,Compound,EC50 [nM]
1,"CC(C)c1onc(-c2c(Cl)cccc2Cl)c1COc1ccc2cc(-c3cccc(OC(F)(F)F)c3)ccc2c1 [Example 30, 3-(2,6-Dichlorophenyl)-5-(1-methylethyl)-4-{[(6-{3-[(trifluoromethyl)oxy]phenyl}-2-naphthalenyl)oxy]methyl}isoxazole]",102 to 1000
2,"CC(C)c1onc(-c2c(Cl)cccc2Cl)c1COc1ccc2[nH]c(-c3cccc(C(=O)O)c3)cc2c1 [Example 56, 3-[5-({[3-(2,6-Dichlorophenyl)-5-(1-methylethyl)-4-isoxazolyl]methyl}oxy)-1H-indol-2-yl]benzoic acid]",102 to 1000
3,"CC(C)c1onc(-c2c(Cl)cccc2Cl)c1COc1ccc2cc(-c3cncc(C(=O)O)c3)ccc2c1 [Example 17, 5-[6-({[3-(2,6-Dichlorophenyl)-5-(1-methylethyl)-4-isoxazolyl]methyl}oxy)-2-naphthalenyl]-3-pyridinecarboxylic acid]",102 to 1000
4,"CC(=O)Nc1cccc(-c2ccc3cc(OCc4c(-c5c(Cl)cccc5Cl)noc4C(C)C)ccc3c2)c1 [Example 29, N-{3-[6-({[3-(2,6-dichlorophenyl)-5-(1-methylethyl)-4-isoxazolyl]methyl}oxy)-2-naphthalenyl]phenyl}acetamide]",102 to 1000
5,"CC(C)c1onc(-c2c(Cl)cccc2Cl)c1COc1ccc2cc(-c3cc(C(=O)O)ccn3)ccc2c1 [Example 21, 2-[6-({[3-(2,6-Dichlorophenyl)-5-(1-methylethyl)-4-isoxazolyl]methyl}oxy)-2-naphthalenyl]-4-pyridinecarboxylic acid]",102 to 1000
6,"CC(C)c1onc(-c2c(Cl)cccc2Cl)c1COc1ccc2c(c1)CN(c1cccc(C(=O)O)c1)C2=O [Example 44, 3-[5-({[3-(2,6-Dichlorophenyl)-5-(1-methylethyl)-4-isoxazolyl]methyl}oxy)-1-oxo-1,3-dihydro-2H-isoindol-2-yl]benzoic acid]",102 to 1000
7,"Cc1cccc(C)c1OCc1noc(C(C)C)c1COc1ccc2c(ccn2Cc2cccc(C(=O)O)c2)c1 [Example 1, 3-{[5-({[3-{[(2,6-dimethylphenyl)oxy]methyl}-5-(1-methylethyl)-4-isoxazolyl]methyl}oxy)-1H-indol-1-yl]methyl}benzoic acid]",102 to 1000
8,"CC(C)c1onc(-c2c(Cl)cccc2Cl)c1COc1ccc2cc(-c3ccc(CCC(=O)O)cc3)ccc2c1 [Example 23, 3-{4-[6-({[3-(2,6-Dichlorophenyl)-5-(1-methylethyl)-4-isoxazolyl]methyl}oxy)-2-naphthalenyl]phenyl}propanoic acid]",102 to 1000
9,"CC(C)c1onc(-c2c(Cl)cccc2Cl)c1COc1ccc2c(ccn2Cc2cccc(C(=O)O)n2)c1 [Example 49, 6-{[5-({[3-(2,6-Dichlorophenyl)-5-(1-methylethyl)-4-isoxazolyl]methyl}oxy)-1H-indol-1-yl]methyl}-2-pyridinecarboxylic acid]",102 to 1000
10,"CC(C)c1onc(-c2c(Cl)cccc2Cl)c1COc1ccc2cc(-c3ccc(C(=O)O)cc3)sc2c1 [Example 9, 4-[6-({[3-(2,6-Dichlorophenyl)-5-(1-methylethyl)-4-isoxazolyl]methyl}oxy)-1-benzothien-2-yl]benzoic acid]",102 to 1000
11,"CC(C)c1onc(-c2c(Cl)cccc2Cl)c1COc1ccc2cc(-c3ccc(F)c(C(=O)O)c3)ccc2c1 [Example 35, 5-[6-({[3-(2,6-Dichlorophenyl)-5-(1-methylethyl)-4-isoxazolyl]methyl}oxy)-2-naphthalenyl]-2-fluorobenzoic acid]",102 to 1000
12,"CC(C)c1onc(-c2c(Cl)cccc2Cl)c1COc1ccc2cc(-c3ccc(Cl)c(C(=O)O)c3)ccc2c1 [Example 34, 2-Chloro-5-[6-({[3-(2,6-dichlorophenyl)-5-(1-methylethyl)-4-isoxazolyl]methyl}oxy)-2-naphthalenyl]benzoic acid]",102 to 1000
13,"CC(C)c1onc(-c2c(Cl)cccc2Cl)c1COc1ccc2[nH]cc(Cc3cccc(C(=O)O)c3)c2c1 [Example 50, 3-{[5-({[3-(2,6-Dichlorophenyl)-5-(1-methylethyl)-4-isoxazolyl]methyl}oxy)-1H-indol-3-yl]methyl}benzoic acid]",1020 to 10000
14,"CC(C)c1onc(-c2c(Cl)cccc2Cl)c1COc1ccc2cc(-c3ccc(C(=O)O)cn3)ccc2c1 [Example 24, 6-[6-({[3-(2,6-Dichlorophenyl)-5-(1-methylethyl)-4-isoxazolyl]methyl}oxy)-2-naphthalenyl]-3-pyridinecarboxylic acid]",102 to 1000
15,"CC(C)c1onc(-c2c(Cl)cccc2Cl)c1COc1ccc2c(Cc3cccc(C(=O)O)c3)c[nH]c2c1 [Example 52, 3-{[6-({[3-(2,6-Dichlorophenyl)-5-(1-methylethyl)-4-isoxazolyl]methyl}oxy)-1H-indol-3-yl]methyl}benzoic acid]",102 to 1000
16,"CC(C)c1onc(-c2c(Cl)cccc2Cl)c1COc1ccc2cc(-c3cccc(N(S(=O)(=O)C(F)(F)F)S(=O)(=O)C(F)(F)F)c3)ccc2c1 [Example 26, N-{3-[6-({[3-(2,6-Dichlorophenyl)-5-(1-methylethyl)-4-isoxazolyl]methyl}oxy)-2-naphthalenyl]phenyl}-1,1,1-trifluoro-N-[(trifluoromethyl)sulfonyl]methanesulfonamide]",102 to 1000
17,"CC(C)c1onc(-c2c(Cl)cccc2Cl)c1COc1ccc2nc(-c3cccc(C(=O)O)c3)sc2c1 [Example 11, 3-[6-({[3-(2,6-Dichlorophenyl)-5-(1-methylethyl)-4-isoxazolyl]methyl}oxy)-1,3-benzothiazol-2-yl]benzoic acid]",102 to 1000
18,"CC(C)c1onc(-c2c(Cl)cccc2Cl)c1COc1ccc2c(c1)CC(=O)N(c1cccc(C(=O)O)c1)C2 [Example 45, 3-[6-({[3-(2,6-Dichlorophenyl)-5-(1-methylethyl)-4-isoxazolyl]methyl}oxy)-3-oxo-3,4-dihydro-2(1H)-isoquinolinyl]benzoic acid]",1020 to 10000
19,"CC(C)c1onc(-c2c(Cl)cccc2Cl)c1COc1ccc2c(c1)ncn2Cc1cccc(C(=O)O)c1 [Example 42, 3-{[5-({[3-(2,6-Dichlorophenyl)-5-(1-methylethyl)-4-isoxazolyl]methyl}oxy)-1H-benzimidazol-1-yl]methyl}benzoic acid]",1020 to 10000
20,"CC(C)c1onc(COc2c(Cl)cc(F)cc2Cl)c1COc1ccc2c(ccn2Cc2cccc(C(=O)O)c2)c1 [Example 14, 3-{[5-({[3-{[(2,6-Dichloro-4-fluorophenyl)oxy]methyl}-5-(1-methylethyl)-4-isoxazolyl]methyl}oxy)-1H-indol-1-yl]methyl}benzoic acid]",102 to 1000
21,"CC(C)c1onc(-c2c(Cl)cccc2Cl)c1COc1ccc2c(ccn2Cc2ccc(C(=O)O)cc2)c1 [Example 13, 4-{[5-({[3-(2,6-Dichlorophenyl)-5-(1-methylethyl)-4-isoxazolyl]methyl}oxy)-1H-indol-1-yl]methyl}benzoic acid]",102 to 1000
22,"CC(C)c1onc(-c2c(Cl)cccc2Cl)c1COc1ccc2c(c1)CCN(c1cccc(C(=O)O)c1)C2=O [Example 60, 3-[6-({[3-(2,6-Dichlorophenyl)-5-(1-methylethyl)-4-isoxazolyl]methyl}oxy)-1-oxo-3,4-dihydro-2(1H)-isoquinolinyl]benzoic acid]",102 to 1000
